In patent US20250188082A1, “Use of Hypoxanthine Compound In Preparation of Drug For Treating Pulmonary Fibrosis” (Sichuan Yiasuo Pharmaceutical Technology Co., Ltd., priority 2022, published 2025):

Tests used:
Format in all cases: in vivo, C57BL/6 mice
[1] = test system: bleomycin-induced pulmonary fibrosis model; test: Advanced pulmonary fibrosis: bleomycin-induced model, dosing from three weeks after modelling; details: advanced pulmonary fibrosis, 120 mg/kg/d intragastric, 14 days, from three weeks after model; for Leucocyte / Lymphocyte / Neutrophil: blood, Day 15, twice every day; for Ashcroft scores: lung tissue HE staining
[2] = test system: Streptococcus pneumoniae-induced pulmonary fibrosis model; test: Streptococcus pneumoniae-induced pulmonary fibrosis model; details: Streptococcus pneumoniae + bleomycin, 120 mg/kg/d intragastric, 14 days; for Leucocyte / Lymphocyte / Neutrophil: blood, Day 15, 3 times every day, from one week after model; for Ashcroft scores: lung tissue HE staining
[3] = test system: novel coronavirus-induced pulmonary fibrosis model (COVID-19 novel coronavirus strains); test: Novel coronavirus-induced pulmonary fibrosis model; details: 120 mg/kg/d intragastric, 14 days; for Ashcroft scores: novel coronavirus + bleomycin, lung tissue HE; for IL-1β / IL-6 / NF-κB / TNF-α: serum, COVID-19 novel coronavirus + bleomycin, from two weeks after model
Source text: Experimental method: an in-vivo novel coronavirus-induced pulmonary fibrosis model was established: C57BL/6 mice (with weights being 22-25 g) were randomly and evenly divided into a plurality of groups, including blank control group, model group, Nintedanib positive control group, hypoxanthine analogue A group, hypoxanthine analogue B group, hypoxanthine analogue C group, compound 1 group, a compound 2 group . . . compound 12 group, with 9 mice in each group. On Day 1, the mice in blank control group were instilled with normal saline nasally, and the mice in other groups were all infected with COVID-19 novel coronavirus strains (30 μL) through nasal instillation. On Day 2, the mice received 5 mg/kg bleomycin through tracheas to induce their pulmonary fibrosis. After the model was established for two weeks, the mice in each group were intragastrically administrated for intervention for consecutive 14 days; the mice in blank control group and model group intragastrically received the same dosage of normal saline as those in drug groups; the mice in Nintedanib positive control group received Nintedanib (120 mg/kg); the mice in hypoxanthine analogue A group, hypoxanthine analogue B group and hypoxanthine analogue C group respectively received hypoxanthine analogue A (120 mg/kg/d), hypoxanthine analogue B (120 mg/kg/d) and hypoxanthine analogue C (120 mg/kg/d); and the mice in compound 1 group, compound 2 group . . . compound 12 group respectively received compound 1 (120 mg/kg/d), compound 2 (120 mg/kg/d) . . . compound 12 (120 mg/kg/d) prepared in example 1. After administration for consecutive 14 days, the mice were observed every day, and their weights and death conditions were recorded. After administration, blood was taken from eyeballs for immediately detecting the expression levels of NF-κB, TNF-α, IL-1 and IL-6 in serum, and lung tissues were taken for HE detection and Ashcroft scoring.

[4] = test system: mycoplasma-induced pulmonary fibrosis model (MPFH strain); test: Mycoplasma-induced pulmonary fibrosis model; details: 120 mg/kg/d intragastric, 14 days; for Leucocyte / Lymphocyte / Neutrophil: MPFH mycoplasma + bleomycin, once a day, from two weeks after model; for Ashcroft scores: mycoplasma + bleomycin, lung tissue HE
Source text: Experimental method: an in-vivo mycoplasma-induced pulmonary fibrosis model was established: C57BL/6 mice (with weights being 22-25 g) were randomly and evenly divided into a plurality of groups, including blank control group, model group, Nintedanib positive control group, hypoxanthine analogue A group, hypoxanthine analogue B group, hypoxanthine analogue C group, compound 1 group, compound 2 group . . . compound 12 group, with 9 mice in each group. Before a model was established, the mice were anesthetized with diethyl ether. In addition to that the mice in blank control group with instilled with 100 μL of normal saline nasally, the mice in other groups with slowly instilled with an equal volume of a MPFH strain solution (containing 1×10^7 mL^−1 MPFH strain) to the nasal cavity, for consecutive 3 days, and inhaled the MPFH strain solution into bronchi. After instillation with mycoplasmas through tracheas, the mice received 5 mg/kg bleomycin through tracheas to induce their pulmonary fibrosis. After the model was established for two weeks, the mice in each group were intragastrically administrated for intervention for consecutive 14 days; the mice in blank control group and model group intragastrically received an equal dosage of normal saline as those in drug groups; the mice in Nintedanib positive control group received Nintedanib (120 mg/kg); the mice in hypoxanthine analogue A group, hypoxanthine analogue B group and hypoxanthine analogue C group respectively received hypoxanthine analogue A (120 mg/kg/d), hypoxanthine analogue B (120 mg/kg/d) and hypoxanthine analogue C (120 mg/kg/d); and the mice in compound 1 group, compound 2 group . . . compound 12 group respectively received compound 1 (120 mg/kg/d), compound 2 (120 mg/kg/d) . . . compound 12 (120 mg/kg/d) prepared in example 1. The mice were administrated once a day to be treated for consecutive 14 days. The mice were observed every day, and their weights and death conditions were recorded. On the last day of administration, the mice were sacrificed; and blood was taken from eyeballs and kept at −80° C. for detecting blood routine indexes. Meanwhile, lungs were lavaged with normal saline and separated to collect lavage fluids for detecting counts and classes of leucocytes; and lung tissues were taken for HE straining and Ashcroft scoring on the extent of pulmonary fibrosis.

Row | Compound | Leucocyte [1] | Lymphocyte [1] | Neutrophil [1] | Ashcroft scores [1] | Leucocyte [2] | Lymphocyte [2] | Neutrophil [2] | Ashcroft scores [2] | Ashcroft scores [3] | IL-1β [3] | IL-6 [3] | NF-κB [3] | TNF-α [3] | Leucocyte [4] | Lymphocyte [4] | Neutrophil [4] | Ashcroft scores [4] | also measured
1 | CC(C)Oc1ncnc2[nH]cnc12 [Compound 1] | 4.28 10^9/L | 5.33 10^9/L | 1.37 10^9/L | 0.95 | 5.52 10^9/L | 5.99 10^9/L | 2.00 10^9/L | 1.20 | 1.08 | 36.4 pg/mL | 68.3 pg/mL | 26.6 pg/mL | 63.3 pg/mL | 7.01 10^9/L | 72.56 10^9/L | 21.01 10^9/L | 1.12 | –
2 | CC(C)n1cnc2c(=O)[nH]cnc21 [Compound 2] | 4.16 10^9/L | 5.29 10^9/L | 1.26 10^9/L | 0.88 | 5.48 10^9/L | 5.95 10^9/L | 1.83 10^9/L | 1.09 | 1.12 | 35.1 pg/mL | 66.0 pg/mL | 23.5 pg/mL | 64.8 pg/mL | 6.42 10^9/L | 72.69 10^9/L | 21.93 10^9/L | 1.20 | –
3 | CC(C)Oc1ncnc2c1ncn2C(C)C [Compound 3] | 3.98 10^9/L | 5.18 10^9/L | 1.19 10^9/L | 0.87 | 5.62 10^9/L | 5.77 10^9/L | 1.60 10^9/L | 1.01 | 1.19 | 36.3 pg/mL | 65.3 pg/mL | 24.7 pg/mL | 63.5 pg/mL | 6.83 10^9/L | 72.33 10^9/L | 22.12 10^9/L | 0.96 | –
4 | CC(C)Oc1ncnc2ncn(C(C)C)c12 [Compound 4] | 4.26 10^9/L | 5.63 10^9/L | 1.34 10^9/L | 1.24 | 6.99 10^9/L | 6.84 10^9/L | 1.51 10^9/L | 1.29 | 1.50 | 37.2 pg/mL | 64.5 pg/mL | 25.2 pg/mL | 65.9 pg/mL | 6.79 10^9/L | 73.37 10^9/L | 22.54 10^9/L | 1.05 | –
5 | CC(C)Oc1ncnc2nc[nH]c12 [Compound 5] | 4.34 10^9/L | 5.74 10^9/L | 1.36 10^9/L | 1.22 | 6.75 10^9/L | 7.64 10^9/L | 1.82 10^9/L | 1.25 | 1.11 | 37.5 pg/mL | 66.4 pg/mL | 24.3 pg/mL | 66.1 pg/mL | 6.86 10^9/L | 74.39 10^9/L | 21.91 10^9/L | 1.23 | –
6 | CC(C)n1cnc2nc[nH]c(=O)c21 [Compound 6] | 4.58 10^9/L | 5.94 10^9/L | 1.59 10^9/L | 1.19 | 5.91 10^9/L | 7.55 10^9/L | 1.88 10^9/L | 1.27 | 1.34 | 38.7 pg/mL | 67.1 pg/mL | 21.2 pg/mL | 68.3 pg/mL | 6.05 10^9/L | 71.57 10^9/L | 22.72 10^9/L | 1.17 | –
7 | COc1ncnc2c1ncn2C(C)C [Compound 7] | – | – | – | – | – | – | – | – | 1.15 | 39.9 pg/mL | 66.4 pg/mL | 24.6 pg/mL | 67.5 pg/mL | 7.15 10^9/L | 73.29 10^9/L | 21.45 10^9/L | 1.25 | Leucocyte ([1]; 120 mg/kg/day): 4.61 10^9/L; Lymphocyte ([1]; 120 mg/kg/day): 5.65 10^9/L; Neutrophil ([1]; 120 mg/kg/day): 1.44 10^9/L; Ashcroft scores ([1]; 120 mg/kg/day): 1.13; Leucocyte ([2]; 120 mg/kg/day): 6.39 10^9/L; Lymphocyte ([2]; 120 mg/kg/day): 7.72 10^9/L; Neutrophil ([2]; 120 mg/kg/day): 1.88 10^9/L; Ashcroft scores ([2]; 120 mg/kg/day): 1.29
8 | CCOc1ncnc2c1ncn2C(C)C [Compound 8] | 4.59 10^9/L | 5.73 10^9/L | 1.42 10^9/L | 1.21 | 6.68 10^9/L | 8.09 10^9/L | 1.94 10^9/L | 1.31 | 1.24 | 38.4 pg/mL | 68.2 pg/mL | 23.4 pg/mL | 66.7 pg/mL | 7.26 10^9/L | 72.52 10^9/L | 23.62 10^9/L | 1.26 | –
9 | CCCOc1ncnc2c1ncn2C(C)C [Compound 9] | 4.69 10^9/L | 5.69 10^9/L | 1.46 10^9/L | 1.11 | 6.73 10^9/L | 7.11 10^9/L | 1.89 10^9/L | 1.33 | 1.34 | 39.6 pg/mL | 69.1 pg/mL | 22.9 pg/mL | 68.8 pg/mL | 6.79 10^9/L | 73.19 10^9/L | 22.06 10^9/L | 1.38 | –
10 | CC(C)Oc1ncnc2c1N(C(C)C)CN2C(C)C [Compound 10] | 4.26 10^9/L | 5.71 10^9/L | 1.38 10^9/L | 1.16 | 7.01 10^9/L | 7.33 10^9/L | 1.99 10^9/L | 1.38 | 1.67 | 38.1 pg/mL | 67.5 pg/mL | 26.5 pg/mL | 68.9 pg/mL | 6.18 10^9/L | 72.54 10^9/L | 21.11 10^9/L | 1.45 | –
